In the CheMixHub viscosity set:

Experiment: xn = mol fraction of the nth substance listed

CCNCC + CCCCOCCOCCO
viscosity [mPa·s], 100 kPa
Conditions | 298.15 K | 303.15 K | 308.15 K
x2 = 0.05043 | 0.3695 | 0.3487 | 0.3286
x2 = 0.09991 | 0.457 | 0.4294 | 0.4036
x2 = 0.1494 | 0.5594 | 0.5411 | 0.4914
x2 = 0.2 | 0.699 | 0.6487 | 0.6022
x2 = 0.3 | 1.062 | 0.9662 | 0.8961
x2 = 0.4001 | 1.56 | 1.376 | 1.288
x2 = 0.5 | 2.156 | 1.896 | 1.722
x2 = 0.6 | 2.817 | 2.45 | 2.215
x2 = 0.6997 | 3.484 | 3.007 | 2.686
x2 = 0.7998 | 4.107 | 3.511 | 3.132
x2 = 0.9 | 4.667 | 3.966 | 3.532
x2 = 0.9491 | 4.904 | 4.167 | 3.705

Nc1ccccc1 + CCCO
viscosity [mPa·s]
Conditions | 294.15 K | 298.15 K | 303.15 K | 308.15 K | 313.15 K
100 kPa, x1 = 0.091 | – | – | 1.673 | – | 1.319
100 kPa, x1 = 0.1839 | – | – | 1.635 | – | 1.275
100 kPa, x1 = 0.2978 | – | – | 1.609 | – | 1.255
100 kPa, x1 = 0.3949 | – | – | 1.626 | – | 1.271
100 kPa, x1 = 0.4741 | – | – | 1.673 | – | 1.31
100 kPa, x1 = 0.5952 | – | – | 1.819 | – | 1.399
100 kPa, x1 = 0.7405 | – | – | 2.129 | – | 1.602
100 kPa, x1 = 0.8903 | – | – | 2.582 | – | 1.958
101.33 kPa, x1 = 0.1006 | 2.097 | 1.902 | 1.685 | 1.501 | 1.341
101.33 kPa, x1 = 0.1991 | 2.123 | 1.93 | 1.703 | 1.516 | 1.357
101.33 kPa, x1 = 0.2994 | 2.219 | 1.993 | 1.753 | 1.56 | 1.394
101.33 kPa, x1 = 0.3992 | 2.336 | 2.098 | 1.846 | 1.633 | 1.446
101.33 kPa, x1 = 0.5007 | 2.499 | 2.234 | 1.952 | 1.727 | 1.526
101.33 kPa, x1 = 0.6011 | 2.689 | 2.398 | 2.092 | 1.842 | 1.638
101.33 kPa, x1 = 0.7011 | 2.963 | 2.641 | 2.304 | 2 | 1.791
101.33 kPa, x1 = 0.8002 | 3.289 | 2.925 | 2.575 | 2.241 | 1.981
101.33 kPa, x1 = 0.8983 | 3.671 | 3.245 | 2.81 | 2.455 | 2.16

COCCOCCOCCOC + ClC(Cl)(Cl)Cl
298.15 K, 101 kPa
Conditions | viscosity [mPa·s]
x1 = 0.0041 | 0.912
x1 = 0.0202 | 0.952
x1 = 0.0485 | 1
x1 = 0.0921 | 1.08
x1 = 0.1704 | 1.198
x1 = 0.2242 | 1.288
x1 = 0.2579 | 1.333
x1 = 0.2736 | 1.364
x1 = 0.3237 | 1.437
x1 = 0.3887 | 1.52
x1 = 0.4494 | 1.59
x1 = 0.5 | 1.646
x1 = 0.5522 | 1.696
x1 = 0.6149 | 1.75
x1 = 0.6542 | 1.79
x1 = 0.7187 | 1.826
x1 = 0.7623 | 1.846
x1 = 0.8533 | 1.891
x1 = 0.8992 | 1.913
x1 = 0.9312 | 1.929

C[C@@H]1CC[C@@H]2C[C@H]1C2(C)C + C[C@H]1CC[C@@H]2C[C@H]1C2(C)C
100 kPa, x2 = 0.9048
Conditions | viscosity [mPa·s]
293.15 K | 2.24
298.15 K | 2.023
303.15 K | 1.838
308.15 K | 1.679
313.15 K | 1.538
318.15 K | 1.415
323.15 K | 1.308
